{
  "source": "PubChem BioAssay AID1648",
  "about": "(Sanford-Burnham Center for Chemical Genomics, 2009)",
  "note": "Calls of active or inactive are those of the source. The rule behind the calls is not given here.",
  "data": [
    {"target": "Serine/threonine-protein kinase mTOR (Homo sapiens) (UniProt P42345)", "sequence (P42345 2015-2114)": "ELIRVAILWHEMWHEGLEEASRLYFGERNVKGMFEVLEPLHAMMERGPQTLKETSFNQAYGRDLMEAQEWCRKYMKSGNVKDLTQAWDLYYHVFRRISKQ", "assay": "mTOR FRB domain ligand binding – biophysical, NMR (AID 1648)", "settings": "NMR binding to FRB domain, chemical shift", "values": [
      {"smiles": "Cc1c(CCO)c(=O)n2c([nH]c3ccccc32)c1C#N", "Kd": "> 4 mM (inactive)"},
      {"smiles": "O=S1(=O)CCC(NCCO)C1", "note": "(stereo not drawn)", "Kd": "> 4 mM (inactive)"},
      {"smiles": "CCOC(=O)C(C)c1n[nH]c(=O)c2ccccc12", "note": "(stereo not drawn)", "Kd": "> 4 mM (inactive)"},
      {"smiles": "O=C(Nc1ccon1)c1cccc(C(F)(F)F)c1", "Kd": "> 4 mM (inactive)"},
      {"smiles": "O=C(NCc1ccccn1)c1ccc(Cl)cc1Cl", "Kd": "> 4 mM (inactive)"},
      {"smiles": "CNC(=O)Nc1cccc(C(F)(F)F)c1", "Kd": "> 4 mM (inactive)"},
      {"smiles": "CC(C)CCCC(C)[C@H]1CCC2C3CC[C@H]4CC(=O)CC[C@]4(C)C3CC[C@@]21C", "note": "(stereo partly drawn)", "Kd": "> 4 mM (inactive)"},
      {"smiles": "COc1cc2cc3c4cc(OC)c(OC)cc4cc[n+]3c(C)c2cc1OC", "Kd": "> 4 mM (inactive)"},
      {"smiles": "Cc1cc(C)c(C(N)=O)c(=S)[nH]1", "Kd": "> 4 mM (inactive)"},
      {"smiles": "Nc1c(S(=O)(=O)c2ccccc2)csc1C(=O)O", "Kd": "> 4 mM (inactive)"},
      {"smiles": "CC1(C)Cc2c(C#N)c(N)n(-c3ccccc3)c(=O)c2CO1", "Kd": "> 4 mM (inactive)"},
      {"smiles": "NC(=O)CSc1nnc2ccc3ccccc3n12", "Kd": "> 4 mM (inactive)"},
      {"smiles": "C/C(N)=C/C(=O)N1CCCCC1", "Kd": "> 4 mM (inactive)"},
      {"smiles": "OCc1ccc(CN2CCOCC2)cc1", "Kd": "> 4 mM (inactive)"},
      {"smiles": "CC(C)C(C)/C=C/C(C)C1CCC2C3=CC=C4CC(O)CCC4(C)C3CCC21C", "note": "(stereo not drawn)", "Kd": "> 4 mM (inactive)"},
      {"smiles": "Cc1cc(NC(=O)CSc2ccnc(=O)[nH]2)no1", "Kd": "> 4 mM (inactive)"},
      {"smiles": "Cn1nnc2cc(C(=O)NC3=NCCS3)ccc21", "Kd": "> 4 mM (inactive)"},
      {"smiles": "COc1ccc(-c2nc(C)sc2CC(=O)O)cc1", "Kd": "> 4 mM (inactive)"},
      {"smiles": "Cc1ccc2nc(SCC(=O)O)nc(C)c2c1", "Kd": "> 4 mM (inactive)"},
      {"smiles": "Nc1nc2c3ccccc3nc(Cc3ccccc3)n2n1", "Kd": "> 4 mM (inactive)"},
      {"smiles": "Cc1[nH]c2ccccc2c1C(=O)CSc1ncn[nH]1", "Kd": "> 4 mM (inactive)"},
      {"smiles": "CC1=C(C(N)=O)C(c2cccs2)C(C(N)=O)=C(C)N1", "Kd": "> 4 mM (inactive)"},
      {"smiles": "CCOC(=O)c1cc2ccccc2oc1=O", "Kd": "> 4 mM (inactive)"},
      {"smiles": "Nc1c(N2CCCC2)cnn(-c2ccccc2)c1=O", "Kd": "> 4 mM (inactive)"},
      {"smiles": "O=C(O)CC1Sc2ccccc2NC1=O", "note": "(stereo not drawn)", "Kd": "> 4 mM (inactive)"},
      {"smiles": "CC1(C)CC(NC(=O)/C=C/C(=O)O)CC(C)(C)N1", "Kd": "> 4 mM (inactive)"},
      {"smiles": "CC1=C2C(O)C(=O)OC3CC4C(C)(C)C(=O)C=C[C@]4(C)C(CC1)[C@]23C", "note": "(stereo partly drawn)", "Kd": "> 4 mM (inactive)"},
      {"smiles": "O=C(O)CCC1=C2c3ccccc3CCN2C(=O)CC1", "Kd": "> 4 mM (inactive)"},
      {"smiles": "Cc1c(F)cccc1NS(=O)(=O)c1ccccc1C#N", "Kd": "> 4 mM (inactive)"},
      {"smiles": "NC(=O)c1cc(N)ccc1N1CCCCC1", "Kd": "> 4 mM (inactive)"},
      {"smiles": "COC(=O)C1=C(C)N(Cc2ccco2)C(=O)C1", "Kd": "> 4 mM (inactive)"},
      {"smiles": "N#C/C(=C\\c1ccc[nH]1)S(=O)(=O)c1ccccc1", "Kd": "> 4 mM (inactive)"},
      {"smiles": "O=C1c2ccccc2C(=O)N1/N=C/c1ccc[nH]1", "Kd": "> 4 mM (inactive)"},
      {"smiles": "CC1(NC(=O)NCc2ccccc2)CCS(=O)(=O)C1", "note": "(stereo not drawn)", "Kd": "> 4 mM (inactive)"},
      {"smiles": "O=C(O)CCc1nc2ccccc2[nH]c1=O", "Kd": "> 4 mM (inactive)"},
      {"smiles": "O=S(=O)(Cc1ccccc1Cl)Nc1ccccn1", "Kd": "> 4 mM (inactive)"},
      {"smiles": "NS(=O)(=O)c1ccc(N=Cc2cccs2)cc1", "Kd": "> 4 mM (inactive)"},
      {"smiles": "O=CN1CCN(C(=O)c2ccco2)CC1", "Kd": "> 4 mM (inactive)"},
      {"smiles": "COC1C(O)C(O[C@H]2CC[C@]3(C=O)C4C(CC[C@]3(O)C2)[C@@]2(O)CC[C@H](C3=CC(=O)OC3)[C@@]2(C)C[C@H]4OC(C)=O)OC(C)C1OC(C)=O", "note": "(stereo partly drawn)", "Kd": "> 4 mM (inactive)"},
      {"smiles": "CC(=O)c1cccc(NC(=O)Nc2c(C)nn(C)c2C)c1", "Kd": "> 4 mM (inactive)"},
      {"smiles": "Cc1cc(C)n2nc(C(=O)NCc3ccco3)nc2n1", "Kd": "> 4 mM (inactive)"},
      {"smiles": "CCOC(=O)C1CCN(c2ncnc3nc[nH]c23)CC1", "Kd": "> 4 mM (inactive)"},
      {"smiles": "Nc1ccc(N2CCOCC2)cc1", "Kd": "> 4 mM (inactive)"},
      {"smiles": "COc1ccc(NC2=NCC(C)S2)cc1", "note": "(stereo not drawn)", "Kd": "> 4 mM (inactive)"},
      {"smiles": "CC(C)NC(=S)N1CCN(S(C)(=O)=O)CC1", "Kd": "> 4 mM (inactive)"},
      {"smiles": "CCOC12NC(=O)CC(=O)N1C(c1ccccc1)=CS2", "note": "(stereo not drawn)", "Kd": "> 4 mM (inactive)"},
      {"smiles": "Cc1cc(=O)[nH]c(N)n1", "Kd": "> 4 mM (inactive)"},
      {"smiles": "O=C1c2cccnc2C(=O)N1Cc1ccco1", "Kd": "> 4 mM (inactive)"},
      {"smiles": "O=C(O)C1(O)C[C@@H](O)C(O)[C@H](O)C1", "note": "(stereo partly drawn)", "Kd": "> 4 mM (inactive)"},
      {"smiles": "Cc1ccc(S(=O)(=O)CC(N)=O)cc1", "Kd": "> 4 mM (inactive)"},
      {"smiles": "Nc1nsc(-c2ccccc2)n1", "Kd": "> 4 mM (inactive)"},
      {"smiles": "COc1cc(OC)c(-c2c(OC)cc(OC)cc2OC)c(OC)c1", "Kd": "> 4 mM (inactive)"},
      {"smiles": "Nc1cncc(C(=O)O)c1", "Kd": "> 4 mM (inactive)"},
      {"smiles": "Nc1c(/C=C2\\C=Nc3ccccc32)c(=O)nc2scnn12", "Kd": "> 4 mM (inactive)"},
      {"smiles": "OCc1cc(-c2cccs2)on1", "Kd": "> 4 mM (inactive)"},
      {"smiles": "CCc1cc(=O)[nH]c(SCC(=O)NCCOC)n1", "Kd": "> 4 mM (inactive)"},
      {"smiles": "O=C(O)CCC(=O)c1c[nH]c2ccccc12", "Kd": "> 4 mM (inactive)"},
      {"smiles": "Cc1cc(C)n2nc(NCc3ccccc3)nc2n1", "Kd": "> 4 mM (inactive)"}
    ]}
  ]
}
